Reference: patent US20120252796A1, “COMPOUNDS FOR THE TREATMENT OF DYSLIPIDEMIA AND RELATED DISEASES” (priority 2009, published 2012)

What was measured:
[1] = test system: LPS induced dyslipidemia model C57 mice; assay: LDL-C lowering activity in LPS induced dyslipidemia model C57 mice; assay type: in vivo; conditions: male C57 mice, i.p. or oral, 24 hours after LPS, vs Vehicle group
Procedure: Male C57 mice of 7-10 week age are grouped based on non-fasting LDL-C levels, on next day these mice were administered with Vehicle or test compounds (i.p. or oral) and 30 min after compound administration lipolysaccharide (LPS) was administered. After LPS administration all animals were kept on fasting for 24 hours, after that animals were bled and LDL-C was measured. The percent change in LDL-C in test compound group Vs Vehicle group was calculated.

PCSK9 [2] = target: T1, PCSK9 (Homo sapiens, UniProt Q8NBP7); assay: PCSK9-LDLR in vitro Binding Assay (ELISA)
Procedure: The PCSK9-LDLR in vitro Binding Assay is a quantitative solid phase binding assay between PCSK9 and recombinant LDLR. Plates were pre-coated with a recombinant LDLR-AB domain, which binds PCSK9. Test compound at different concentration was added to the PCSK9 and added to LDLR immobilized on the wells. The amount of bound PCSK9 is measured by binding it with biotinylated anti-His-tag monoclonal antibody, followed by binding with horseradish peroxidase conjugated streptavidin substrate. The color was quantified by ELISA reader at […] which reflects the relative amount of PCSK9 that binds to LDLR in presence and absence of the inhibitor. EC50 values were calculated by nonlinear regression analysis using graph pad prism software. Each concentration point represents values in duplicates.
Target sequence in this assay (Q8NBP7 153-692): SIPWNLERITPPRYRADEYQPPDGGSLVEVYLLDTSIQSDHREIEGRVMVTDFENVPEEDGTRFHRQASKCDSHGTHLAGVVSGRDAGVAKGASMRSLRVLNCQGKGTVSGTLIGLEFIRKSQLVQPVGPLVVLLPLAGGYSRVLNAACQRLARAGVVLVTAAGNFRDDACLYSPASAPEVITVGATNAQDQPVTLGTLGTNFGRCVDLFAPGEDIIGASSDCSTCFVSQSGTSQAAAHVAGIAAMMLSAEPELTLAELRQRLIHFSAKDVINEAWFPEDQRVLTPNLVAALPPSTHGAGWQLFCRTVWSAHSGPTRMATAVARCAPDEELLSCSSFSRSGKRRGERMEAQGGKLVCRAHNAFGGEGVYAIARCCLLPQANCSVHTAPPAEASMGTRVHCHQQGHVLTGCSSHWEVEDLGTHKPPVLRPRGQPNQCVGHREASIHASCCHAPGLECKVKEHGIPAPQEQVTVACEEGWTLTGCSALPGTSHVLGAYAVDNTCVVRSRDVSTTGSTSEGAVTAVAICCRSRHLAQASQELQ
Target sequence in this assay (Q8NBP7 31-152 partner limits assumed): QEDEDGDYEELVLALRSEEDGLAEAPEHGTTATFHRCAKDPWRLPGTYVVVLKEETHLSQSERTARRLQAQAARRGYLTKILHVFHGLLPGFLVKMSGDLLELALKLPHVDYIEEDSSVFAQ

PCSK9 [3] = target: T1, PCSK9; assay: SPR binding studies (BIACORE3000); conditions: 25° C., phosphate buffer pH 7.4; compounds run at 10 nM, 100 nM and 1 micro mole, concentration of the value not stated
Procedure: Instrumentation: BIACORE3000 from GE Life Sciences was used and the Interaction analysis was performed at 25° C.
Buffers: phosphate buffer pH 7.4 supplied by Biacore supplemented with 0.01% dimethyl sulfoxide (DMSO) was used as running buffer during the assay.
Immobilization of Ligand: Sensor chip CM5 was used for analysis. The sensor chip consists of a carboxymethyl-modified dextran polymer linked to a gold-covered glass support. The ligand was diluted to 10 micro gram/ml in 10 mM sodium acetate, pH5.0 and immobilized to the sensor chip, using amine coupling. Running buffer without DMSO was used during immobilization. The surface was activated by injecting a solution containing 0.2M N-ethyl-N′-dimethyl aminopropyl-carbodiimide (EDC) and 50 mM N-hydroxy succinimide (NHS). The system was set for Aim for immobilization of about 1000 RU and the surface was blocked by injecting 1 Mehanolamine at pH 8.5. Then the surface was washed with 50 mM NaOH by injecting two 30 second-pulses to remove off non covalently bound ligand and to stabilize the baseline (automated procedure). Activated dextran was used as a reference surface. To ensure highest sensitivity the SPR Detector response was normalized before running the assay. By calibrating the detector at various light intensities under Conditions of total internal reflection (automated procedure). Solvent correction for DMSO was also carried to minimize the error in data.
Assay Design: A binding assay was set up for different compounds at three different concentrations (10 nM, 100 nM and 1 micro mole), and were injected over the reference and Ligand flow cells at a flow rate of 30 micro liter/min. Each cycle consisted of a 1-min waiting period for monitoring of the baseline stability and 3 minute injection of compound with a 5 minute Undisturbed dissociation phase, and the surface was regenerated with 50 mM NaoH solution. Compound responses in the reference flow cell were subtracted with that of ligand and a solvent correction run was carried in between and the binding potential of the compounds was reported as relative response units (RU).
Target sequence in this assay (Q8NBP7 153-692): as the sequence (Q8NBP7 153-692) above

[4] = test system: HF-HC diet fed Syrian golden hamsters; assay: Lipid lowering effect in HF-HC diet fed hamster model; assay type: in vivo; set-up: concentration or dose not given beside the values; conditions: oral gavage once daily, day 14
Text: In this experiment, Syrian golden hamsters which were kept on high fat—high cholesterol (HF-HC) fructose diet for 2 weeks were divided into various groups based on LDL-C and Total cholesterol levels. The treatment was given by oral gavages once daily for 14 days. The blood was collected by retro-orbital sinus puncture method under light ether anesthesia on day 0 (pretreatment), and day 14 of the treatment for lipid levels measurements. The percent change in LDL-C in compound group Vs Vehicle group was calculated.

Compound: 1-(2-methyl-5-((4-methyl-2-(4-(trifluoromethyl)phenyl)thiazol-5-yl)methyl)-1,3-dioxan-2-yl)-N—((tetrahydro-2H-pyran-4-yl)methyl)methanamine [Example 92]
- % Change in LDL-C [1]: −35.8 ± 10.5%
- % Inhibition PCSK9 (PCSK9 [2]; Concentration 1 μM): 11%
- % Inhibition PCSK9 (PCSK9 [2]; Concentration 10 μM): 26%
- % Inhibition PCSK9 (PCSK9 [2]; Concentration 100 μM): 40%

Compound: Cc1oc(-c2ccccc2)nc1CC1COC(C)(C(=O)NO)OC1 (single isomer, unassigned) [Example 6, N-hydroxy-2-methyl-5-c-((5-methyl-2-phenyloxazol-4-yl)methyl)-1,3-dioxane-2-carboxamide]
- Relative response (RU) (PCSK9 [3]): 2.65 RU
- % Inhibition PCSK9 (PCSK9 [2]; 5 µM): 10%
- % Inhibition PCSK9 (PCSK9 [2]; 10 µM): 11%
- % Inhibition PCSK9 (PCSK9 [2]; 100 µM): 22%

Compound: Cc1oc(-c2ccccc2)nc1CC1COC(C)(C(=O)NO)OC1 (single isomer, unassigned) [Example 7, N-hydroxy-2-methyl-5-t-((5-methyl-2-phenyloxazol-4-yl)methyl)-1,3-dioxane-2-carboxamide]
- % Change Vs Vehicle Control HDL-C [4]: −20.1%
- % Change Vs Vehicle Control LDL-C [4]: −29.3%
- % Change Vs Vehicle Control TC [4]: −29.6%
- % Change Vs Vehicle Control TG [4]: −26.7%
- % Inhibition PCSK9 (PCSK9 [2]; Concentration 1 μM): 11%
- % Inhibition PCSK9 (PCSK9 [2]; Concentration 10 μM): 12%
- % Inhibition PCSK9 (PCSK9 [2]; Concentration 100 μM): 20%

Compound: Cc1oc(-c2ccccc2)nc1CC1COC(C)(C(=O)NCC2CCOCC2)OC1 (stereo not shown) [Example 8, 2-methyl-5-((5-methyl-2-phenyloxazol-4-yl)methyl)-N—((tetrahydro-2H-pyran-4-yl)methyl)-1,3-dioxane-2-carboxamide]
- % Change in LDL-C [1]: −33.5 ± 5.4%
- inhibition at 1 µM (PCSK9 [2]; Concentration 1 μM): 18%
- inhibition at 10 µM (PCSK9 [2]; Concentration 10 μM): 23%
- inhibition at 100 µM (PCSK9 [2]; Concentration 100 μM): 30%

Compound: Cc1oc(-c2ccccc2)nc1CC1COC(C)(C(=O)N2CCOCC2)OC1 (stereo not shown) [Example 12, (2-methyl-5-c-((5-methyl-2-phenyloxazol-4-yl)methyl)-1,3-dioxan-2-yl)(morpholino)methanone]
- % Change in LDL-C [1]: −40 ± 10.0%
- % Inhibition PCSK9 (PCSK9 [2]; Concentration 10 μM): 19%
- % Inhibition PCSK9 (PCSK9 [2]; Concentration 100 μM): 18%

Compound: Cc1oc(-c2ccccc2)nc1CC1COC(C)(C(=O)N2CCN(C)CC2)OC1 (stereo not shown) [Example 14, (2-methyl-5-c-((5-methyl-2-phenyloxazol-4-yl)methyl)-1,3-dioxan-2-yl)(4-methylpiperazin-1-yl)methanone]
- Relative response (RU) (PCSK9 [3]): 15.81 RU
- % Inhibition PCSK9 (PCSK9 [2]; Concentration 10 μM): 41%
- % Inhibition PCSK9 (PCSK9 [2]; Concentration 100 μM): 5%

Compound: Cc1oc(-c2ccccc2)nc1CC1COC(C)(C(=O)NCC(=O)N2CCOCC2)OC1 (stereo not shown) [Example 19, 2-methyl-5-c-((5-methyl-2-phenyloxazol-4-yl)methyl)-N-(2-morpholino-2-oxoethyl)-1,3-dioxane-2-carboxamide]
- Relative response (RU) (PCSK9 [3]): 14.1 RU
- % Inhibition PCSK9 (PCSK9 [2]; Concentration 10 μM): 23%
- % Inhibition PCSK9 (PCSK9 [2]; Concentration 100 μM): 25%

Compound: Cc1oc(-c2ccccc2)nc1CC1COC(C)(C(=O)NCCC(=O)N2CCOCC2)OC1 (stereo not shown) [Example 26, 2-methyl-5-c-((5-methyl-2-phenyloxazol-4-yl)methyl)-N-(3-morpholino-3-oxopropyl)-1,3-dioxane-2-carboxamide]
- Relative response (RU) (PCSK9 [3]): 10.3 RU

Compound: Cc1ccc(-c2nc(CC3COC(C)(C(=O)NO)OC3)c(C)o2)cc1 (stereo not shown) [Example 59, N-hydroxy-2-methyl-5-((5-methyl-2-(p-tolyl)oxazol-4-yl)methyl)-1,3-dioxane-2-carboxamide]
- Relative response (RU) (PCSK9 [3]): 1.36 RU
- inhibition at 1 µM (PCSK9 [2]; Concentration 1 μM): 26%
- inhibition at 10 µM (PCSK9 [2]; Concentration 10 μM): 27%
- inhibition at 100 µM (PCSK9 [2]; Concentration 100 μM): 61%

Compound: Cc1ccc(-c2nc(CC3COC(C)(C(=O)NCC4CCOCC4)OC3)c(C)o2)cc1 (stereo not shown) [Example 64, 2-methyl-5-t-((5-methyl-2-(p-tolyl)oxazol-4-yl)methyl)-N—((tetrahydro-2H-pyran-4-yl)methyl)-1,3-dioxane-2-carboxamide]
- Relative response (RU) (PCSK9 [3]): 3.48 RU
- % Inhibition PCSK9 (PCSK9 [2]; Concentration 0.1 μM): 20%
- % Inhibition PCSK9 (PCSK9 [2]; Concentration 1 μM, 1 µM): 23%
- % Inhibition PCSK9 (PCSK9 [2]; Concentration 10 μM, 10 µM): 25%
- % Inhibition PCSK9 (PCSK9 [2]; Concentration 100 μM, 100 µM): 49%

Compound: Cc1oc(C(C)(C)C)nc1CC1COC(C)(C(=O)N2CCOCC2)OC1 (stereo not shown) [Example 73, (5-((2-(tert-butyl)-5-methyloxazol-4-yl)methyl)-2-methyl-1,3-dioxan-2-yl)(morpholino)methanone]
- Relative response (RU) (PCSK9 [3]): 2.4 RU
- inhibition at 1 µM (PCSK9 [2]; Concentration 1 μM): 25%
- inhibition at 10 µM (PCSK9 [2]; Concentration 10 μM): 27%
- inhibition at 100 µM (PCSK9 [2]; Concentration 100 μM): 37%

Compound: Cc1oc(-c2ccncc2)nc1CC1COC(C)(C(=O)NO)OC1 (stereo not shown) [Example 80, N-hydroxy-2-methyl-5-c-((5-methyl-2-(pyridin-4-yl)oxazol-4-yl)methyl)-1,3-dioxane-2-carboxamide]
- Relative response (RU) (PCSK9 [3]): 2.64 RU
- % Inhibition PCSK9 (PCSK9 [2]; Concentration 1 μM, 1 µM): 32%
- % Inhibition PCSK9 (PCSK9 [2]; Concentration 10 μM, 10 µM): 44%
- % Inhibition PCSK9 (PCSK9 [2]; Concentration 100 μM, 100 µM): 34%

Compound: Cc1oc(-c2ccncc2)nc1CC1COC(C)(C(=O)NCC2CCOCC2)OC1 (stereo not shown) [Example 85, 2-methyl-5-t-((5-methyl-2-(pyridin-4-yl)oxazol-4-yl)methyl)-N—((tetrahydro-2H-pyran-4-yl)methyl)-1,3-dioxane-2-carboxamide]
- Relative response (RU) (PCSK9 [3]): 17.29 RU
- % Inhibition PCSK9 (PCSK9 [2]; Concentration 1 μM, 1 µM): 22%
- % Inhibition PCSK9 (PCSK9 [2]; Concentration 10 μM, 10 µM): 30%
- % Inhibition PCSK9 (PCSK9 [2]; Concentration 100 μM, 100 µM): 44%

Compound: Cc1oc(-c2ccncc2)nc1CC1COC(C)(C(=O)NCC(=O)N2CCOCC2)OC1 (stereo not shown) [Example 86, 2-methyl-5-c-((5-methyl-2-(pyridin-4-yl)oxazol-4-yl)methyl)-N-(2-morpholino-2-oxoethyl)-1,3-dioxane-2-carboxamide]
- Relative response (RU) (PCSK9 [3]): 14.95 RU
- % Inhibition PCSK9 (PCSK9 [2]; Concentration 10 μM, 10 µM): 11%
- % Inhibition PCSK9 (PCSK9 [2]; Concentration 100 μM, 100 µM): 15%

Compound: Cc1oc(-c2ccncc2)nc1CC1COC(C)(C(=O)NCC(=O)NCC2CCOCC2)OC1 (stereo not shown) [Example 89, 2-methyl-5-t-((5-methyl-2-(pyridin-4-yl)oxazol-4-yl)methyl)-N-(2-oxo-2-(((tetrahydro-2H-pyran-4-yl)methyl)amino)ethyl)-1,3-dioxane-2-carboxamide]
- % Inhibition PCSK9 (PCSK9 [2]; Concentration 10 μM, 10 µM): 7%
- % Inhibition PCSK9 (PCSK9 [2]; Concentration 100 μM, 100 µM): 10%

Compound: CC1(C(=O)NO)OCC(CCCn2c3ccccc3c3ccccc32)CO1 (stereo not shown) [Example 96, 5-c-(3-(9H-carbazol-9-yl)propyl)-N-hydroxy-2-methyl-1,3-dioxane-2-carboxamide]
- % Inhibition PCSK9 (PCSK9 [2]; Concentration 10 μM): 10%

Compound: Cc1ccc(-n2nc(C(C)(C)C)cc2CC2COC(C)(C(=O)NO)OC2)cc1 (stereo not shown) [Example 99, N-(hydroxy)-5-c-((3-(tert-butyl)-1-(p-tolyl)-1H-pyrazol-5-yl)methyl)-2-methyl-1,3-dioxane-2-carboxamide]
- % Inhibition PCSK9 (PCSK9 [2]; Concentration 10 μM): 5%
- % Inhibition PCSK9 (PCSK9 [2]; Concentration 100 μM): 32%

Compound: Cc1ccc(-n2nc(C(C)(C)C)cc2CC2COC(C)(C(=O)N3CCN(C)CC3)OC2)cc1 (stereo not shown) [Example 105, (5-((3-(tert-butyl)-1-(p-tolyl)-1H-pyrazol-5-yl)methyl)-2-methyl-1,3-dioxan-2-yl)(4-methylpiperazin-1-yl)methanone]
- inhibition at 10 µM (PCSK9 [2]; Concentration 10 μM): 10%
- inhibition at 100 µM (PCSK9 [2]; Concentration 100 μM): 40%

Compound: (2-methyl-5-c-(2-(5-methyl-2-phenyloxazol-4-yl)ethyl)-1,3-dioxan-2-yl)(piperidin-1-yl)methanone [Example 44]
- % Inhibition PCSK9 (PCSK9 [2]; 10 µM): 14%
- % Inhibition PCSK9 (PCSK9 [2]; 100 µM): 25%

Compound: N-hydroxy-2-methyl-5-(2-(5-methyl-2-phenyloxazol-4-yl)ethyl)-1,3-dioxane-2-carboxamide [Example 34]
- % Change Vs Vehicle Control HDL-C [4]: −10.3%
- % Change Vs Vehicle Control LDL-C [4]: −38.2%
- % Change Vs Vehicle Control TC [4]: −32.6%
- % Change Vs Vehicle Control TG [4]: 2.2%
- Relative response (RU) (PCSK9 [3]): 1.95 RU
- % Inhibition PCSK9 (PCSK9 [2]; Concentration 1 μM): 11%
- % Inhibition PCSK9 (PCSK9 [2]; Concentration 10 μM): 12%
- % Inhibition PCSK9 (PCSK9 [2]; Concentration 100 μM): 15%
